Reference: US4474777A, “Benzodiazepine derivatives and their pharmaceutical use” (Hoffmann-La Roche Inc., priority 1982, dated 1984)

Columns and labels:
[1] = system: intestinal resorption of cholesterol; test: inhibition of the intestinal resorption of cholesterol (CHORES), radioactive cholesterol test feed, faeces radioactivity; format: in vivo, normal female albino rats; settings: rats, 100 μmol/kg p.o.; faeces collected for three days; untreated control = 100%
Protocol: The substances to be investigated are administered to groups each comprising 6 normal female albino rats (body weight about 70 g) by means of a probang. Immediately thereafter the animals received by means of a probang a test feed containing a radioactive cholesterol. Thereafter, the faeces is collected for three days, freeze-dried and pulverized, and an aliquot is burnt in order to determine the radioactivity of the faeces. Untreated control animals excrete about 40-50% of the radioactive cholesterol taken up with the feed. The radioactive cholesterol which is not excreted is regarded as the resorbed cholesterol, the amount of resorbed cholesterol in the untreated control animals being arbitrarily fixed as 100%. Animals which have been treated with a substance inhibiting the intestinal resorption of cholesterol show a lower resorption of radioactive cholesterol than untreated control animals. The cholesterol resorption (CHORES) is expressed in percentages of the cholesterol resorption of untreated control animals.
(§1) In the following Table there are given the results obtained with representative products provided by the invention. There are given for each of the compounds listed therein the dosage administered (in μmol/kg p.o.) as well as the cholesterol resorption (CHORES) determined in percentages of the cholesterol resorption of untreated control animals. Moreover, the Table contains information concerning the acute toxicity of the compounds investigated (LD50 in mg/kg in the case of single oral administration to mice).

[2] = acute toxicity, single oral administration to mice; settings: mouse, in vivo, single oral administration (p.o.)
Text: as §1

Structure (SMILES)	CHORES (cholesterol resorption in percentages of the cholesterol resorption of untreated control animals) [1] [%]	LD50 [2] [mg/kg]
C[C@@H]1N=C(c2ccccc2Cl)c2c(ccc(NC(=O)NC3CCC(O)CC3)c2Br)N(C)C1=O (some centres unmarked)	34	
C[C@@H]1N=C(c2ccccc2Cl)c2c(ccc(NC(=O)N3CCCC(O)C3)c2Br)N(C)C1=O (some centres unmarked)	44	
C[C@@H]1N=C(c2ccccc2Cl)c2c(ccc(NC(=O)NCC3COC(C)(C)O3)c2Br)N(C)C1=O (some centres unmarked)	25	
C[C@@H]1N=C(c2ccccc2Cl)c2c(ccc(NC(=O)NC(CO)(CO)CO)c2Br)N(C)C1=O [NHC(CH2 OH)3, 1-[(S)-6-bromo-5-(o-chlorophenyl)-2,3-dihydro-1,3-dimethyl-2-oxo-1H-1,4-benzodiazepin-7-yl]-3-[2-hydroxy-1,1-bis(hydroxymethyl)ethyl]urea]	30	> 5000
C[C@@H]1N=C(c2ccccc2Cl)c2c(ccc(NC(=O)NC(C)(CO)CO)c2Br)N(C)C1=O [NHC(CH3)(CH2 OH)2, 1-[(S)-6-bromo-5-(o-chlorophenyl)-2,3-dihydro-1,3-dimethyl-2-oxo-1H-1,4-benzodiazepin-7-yl]-3-[1,1-bis(hydroxymethyl)ethyl]urea]	31	> 5000
C[C@@H]1N=C(c2ccccc2Cl)c2c(ccc(NC(=O)NCC(O)CO)c2Br)N(C)C1=O (stereo partly drawn) [NHCH2 CH(OH)CH2 OH, 1-[(S)-6-bromo-5-(o-chlorophenyl)-2,3-dihydro-1,3-dimethyl-2-oxo-1H-1,4-benzodiazepin-7-yl]-3-(2,3-dihydroxypropyl)urea]	24	
